The text below walks through data of patent US20140135310A1, “SULPHONAMIDE DERIVATIVES OF ALICYCLIC AMINES FOR THE TREATMENT OF CENTRAL NERVOUS SYSTEM DISEASES” (Adamed Sp. z o.o., priority 2011, published 2014).

For experiment [1], the target named is T1, M3 muscarinic receptors (Homo sapiens, UniProt P20309).
T1 construct: expressed in transfected cells; host or cells: CHO cells
Nature of the experiment: Radioligand binding assay, muscarinic M3 receptors. The following applies: test compound 1×10^−6 M. The gist of the method:
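Radioligand competition binding, detected by scintillation counting; non-specific binding defined with excess unlabelled ligand. Results given as % inhibition of control specific binding; IC50 from Hill-equation fit of competition curves, Ki via Cheng-Prusoff with radioligand KD from Scatchard plot.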

Experiment [2] addresses T2, H1 histaminergic receptors (Homo sapiens, UniProt P35367).
T2 construct: expressed in transfected cells; host or cells: HEK-293 cells
Nature of the experiment: Radioligand binding assay, histaminergic H1 receptors. The following applies: human recombinant (HEK-293 cells), [3H]pyrilamine 1 nM. The gist of the method: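 Competition binding at human H1 receptors; specific binding taken as total minus non-specific binding in excess unlabelled ligand, scintillation read-out. IC50 from Hill-equation fit of competition curves; Ki by Cheng-Prusoff using radioligand concentration and Kd (from Scatchard plot).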

For experiment [3], the target named is T3, 5-HT2C receptor (Homo sapiens, UniProt P28335).
T3 construct: expressed in transfected cells; host or cells: HEK-293 cells
T3 sequence (P28335 33-458): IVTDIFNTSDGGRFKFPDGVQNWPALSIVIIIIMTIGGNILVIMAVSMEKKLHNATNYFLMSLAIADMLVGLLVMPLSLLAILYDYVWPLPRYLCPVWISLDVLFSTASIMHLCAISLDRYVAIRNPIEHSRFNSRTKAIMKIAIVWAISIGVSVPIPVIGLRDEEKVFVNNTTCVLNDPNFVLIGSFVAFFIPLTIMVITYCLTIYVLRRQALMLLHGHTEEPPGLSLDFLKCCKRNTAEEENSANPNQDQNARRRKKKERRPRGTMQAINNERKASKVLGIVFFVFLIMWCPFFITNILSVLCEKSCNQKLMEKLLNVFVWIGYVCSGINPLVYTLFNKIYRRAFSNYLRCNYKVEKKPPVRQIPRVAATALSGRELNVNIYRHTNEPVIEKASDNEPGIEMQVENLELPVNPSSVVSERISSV
Nature of the experiment: Radioligand binding assay, serotoninergic 5-HT2C receptors. The following applies: test compound 1×10^−6 M.

Experiment [4] has as its system α1 adrenergic receptors (rat cerebral cortex). Nature of the experiment: Radioligand binding assay, adrenergic α1 receptors. To be noted: test compound 1×10^−6 M. The method in brief: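 Values derive from radioligand displacement, with non-specific binding defined by excess cold ligand and detection by scintillation. Hill-fit IC50s were converted to Ki via Cheng-Prusoff using Scatchard-derived Kd; percent inhibition of control specific binding also reported.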

Experiment [5] has as its target T4, serotonin transporter (SERT) (Homo sapiens, UniProt P31645).
T4 construct: expressed in transfected cells; host or cells: CHO cells
Nature of the experiment: Radioligand binding assay, serotonin transporter (SERT). The following applies: for inhibition at 1 µM / SERT [%]: binding assay, test compound 1×10^−6 M; for Ki: read-out: Inhibition constants Ki for SERT, SERT. The method in brief:
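Values are derived from competition curves fitted by the Hill equation to give IC50, then converted to Ki by Cheng-Prusoff with radioligand Kd from Scatchard analysis. Specific binding equals total minus non-specific (excess cold ligand), counted by scintillation, and is also expressed as percent inhibition of control.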

The target in experiment [6] is dopaminergic receptors D2 (Homo sapiens, UniProt P14416). Nature of the experiment: Radioligand binding assay, dopaminergic D2 receptors. To be noted: for inhibition at 1 µM / D2 [%]: binding assay, test compound 1×10^−6 M; for Ki: read-out: Inhibition constants Ki for D2 receptors, D2. The method in brief:
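Ki from Cheng–Prusoff conversion of Hill-fitted IC50 values, using the assay radioligand concentration and a Scatchard-determined KD. Specific binding, scintillation-counted, excluded signal remaining under excess unlabelled ligand.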

Experiment [7] concerns the target T5, 5-HT1A receptor (rat hippocampus) (Rattus norvegicus, UniProt P19327).
T5 construct: hippocampus; from tissue; host or cells: rat hippocampus
T5 sequence (P19327 1-422): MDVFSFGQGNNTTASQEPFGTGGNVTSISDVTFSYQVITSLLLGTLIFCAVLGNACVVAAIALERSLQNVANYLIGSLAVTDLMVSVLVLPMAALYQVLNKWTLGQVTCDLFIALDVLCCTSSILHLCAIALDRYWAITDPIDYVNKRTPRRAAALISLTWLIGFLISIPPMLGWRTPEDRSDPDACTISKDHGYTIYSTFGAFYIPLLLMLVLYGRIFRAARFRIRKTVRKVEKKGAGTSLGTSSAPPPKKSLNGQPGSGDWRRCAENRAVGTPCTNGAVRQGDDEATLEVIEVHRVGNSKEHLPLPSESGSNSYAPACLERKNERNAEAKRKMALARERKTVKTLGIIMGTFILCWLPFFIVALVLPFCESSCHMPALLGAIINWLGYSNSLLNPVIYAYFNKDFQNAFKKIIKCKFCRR
Nature of the experiment: Radioligand binding assay, serotoninergic 5-HT1A receptors. The following applies: binding assay result in %, Table 5a.

The subject of experiment [8] is σ receptors. Nature of the experiment: Radioligand binding assay, σ receptors. The following applies: rat cerebral cortex, [3H]DTG 8 nM. The source says:
The specific ligand binding to the receptors is defined as the difference between the total binding and the non-specific binding determined in the presence of the excess of unlabelled ligand.
The results are expressed as a percent of control specific binding ((measured specific binding/control specific binding)×100) and as a percent inhibition of control specific binding (100−((measured specific binding/control specific binding)×100)) obtained in the presence of the test compounds. The specific ligand binding to the receptors is defined as the difference between the total binding and the nonspecific binding determined in the presence of an excess of unlabelled ligand. Scintillation counting was the method of detection of ligand binding. The IC50 values (concentration causing a half-maximal inhibition of control specific binding) were determined by non-linear regression analysis of the competition curves generated with mean replicate values using Hill equation curve fitting (Y=D+[(A−D)/(1+(C/C50)nH)], where Y=specific binding, D=minimum specific binding, A=maximum specific binding, C=compound concentration, C50=IC50, and nH=slope factor). […] The inhibition constants (Ki) were calculated using the Cheng Prusoff equation (Ki=IC50/(1+(L/KD)), where L=concentration of radioligand in the assay, and KD=affinity of the radioligand for the receptor). A scatchard plot was used to determine the Kd.

Experiment [9] concerns the target dopaminergic receptors D3 (Homo sapiens, UniProt P35462). Nature of the experiment: Radioligand binding assay, dopaminergic D3 receptors. To be noted: test compound 1×10^−6 M. The gist of the method:
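Scintillation read-out. Specific = total − nonspecific (excess cold ligand). Data as % of control specific binding / % inhibition; IC50 by Hill fit; Ki = IC50/(1+L/KD), KD from Scatchard plot.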

The target of experiment [10] is T6, 5-HT2A receptor (Homo sapiens, UniProt P28223).
T6 construct: purchased PerkinElmer
Nature of the experiment: Radioligand binding assay, serotoninergic 5-HT2A receptors. The following applies: for inhibition at 1 µM / 5-HT2A [%]: binding assay result in %, Table 5a; for Ki: read-out: Inhibition constants Ki, 5-HT2A. The gist of the method:
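Competition curves from scintillation-counted specific binding (total minus binding with excess unlabelled ligand) were Hill-fitted to give IC50, converted to Ki via Cheng-Prusoff using Scatchard-derived Kd.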

T6 sequence (P28223 whole entry): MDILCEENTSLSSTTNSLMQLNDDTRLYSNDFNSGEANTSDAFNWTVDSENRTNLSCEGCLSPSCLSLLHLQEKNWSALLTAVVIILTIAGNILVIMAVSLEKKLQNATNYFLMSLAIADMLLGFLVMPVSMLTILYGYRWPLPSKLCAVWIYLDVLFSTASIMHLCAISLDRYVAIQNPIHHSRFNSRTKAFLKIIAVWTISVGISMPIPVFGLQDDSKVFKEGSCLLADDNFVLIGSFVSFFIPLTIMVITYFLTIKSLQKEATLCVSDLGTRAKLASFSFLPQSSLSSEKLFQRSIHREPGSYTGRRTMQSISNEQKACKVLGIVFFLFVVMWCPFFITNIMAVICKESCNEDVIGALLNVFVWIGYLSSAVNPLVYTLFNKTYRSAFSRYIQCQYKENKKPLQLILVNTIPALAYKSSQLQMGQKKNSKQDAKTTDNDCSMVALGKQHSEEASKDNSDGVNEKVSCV
T2 sequence (P35367 whole entry): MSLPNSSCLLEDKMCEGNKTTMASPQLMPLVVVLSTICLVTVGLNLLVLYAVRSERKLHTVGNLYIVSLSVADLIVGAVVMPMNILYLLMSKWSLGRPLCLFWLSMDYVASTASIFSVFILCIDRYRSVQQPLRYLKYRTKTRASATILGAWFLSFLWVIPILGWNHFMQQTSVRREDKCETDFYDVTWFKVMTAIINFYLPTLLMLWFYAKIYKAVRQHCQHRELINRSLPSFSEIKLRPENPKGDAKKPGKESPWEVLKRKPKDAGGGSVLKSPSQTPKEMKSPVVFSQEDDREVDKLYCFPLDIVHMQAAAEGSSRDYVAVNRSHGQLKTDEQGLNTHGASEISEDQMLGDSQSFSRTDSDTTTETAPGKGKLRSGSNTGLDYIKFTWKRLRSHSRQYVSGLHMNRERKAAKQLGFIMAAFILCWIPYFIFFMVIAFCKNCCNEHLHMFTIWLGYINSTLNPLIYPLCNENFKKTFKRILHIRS
T1 sequence (P20309 whole entry): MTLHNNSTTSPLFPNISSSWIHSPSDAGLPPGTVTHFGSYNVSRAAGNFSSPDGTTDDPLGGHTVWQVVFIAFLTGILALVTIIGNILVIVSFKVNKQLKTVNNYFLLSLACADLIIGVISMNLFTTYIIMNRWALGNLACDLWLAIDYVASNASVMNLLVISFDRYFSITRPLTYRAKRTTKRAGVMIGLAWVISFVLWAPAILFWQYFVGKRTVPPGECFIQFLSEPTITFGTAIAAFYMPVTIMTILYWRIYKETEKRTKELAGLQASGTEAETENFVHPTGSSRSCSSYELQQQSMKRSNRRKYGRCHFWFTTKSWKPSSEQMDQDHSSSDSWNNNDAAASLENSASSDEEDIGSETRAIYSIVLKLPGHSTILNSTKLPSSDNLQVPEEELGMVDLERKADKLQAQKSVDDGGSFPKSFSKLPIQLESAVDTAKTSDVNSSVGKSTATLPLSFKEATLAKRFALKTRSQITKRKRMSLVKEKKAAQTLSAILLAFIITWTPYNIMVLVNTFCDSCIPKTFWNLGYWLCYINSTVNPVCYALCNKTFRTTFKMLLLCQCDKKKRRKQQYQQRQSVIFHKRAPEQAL
T4 sequence (P31645 whole entry): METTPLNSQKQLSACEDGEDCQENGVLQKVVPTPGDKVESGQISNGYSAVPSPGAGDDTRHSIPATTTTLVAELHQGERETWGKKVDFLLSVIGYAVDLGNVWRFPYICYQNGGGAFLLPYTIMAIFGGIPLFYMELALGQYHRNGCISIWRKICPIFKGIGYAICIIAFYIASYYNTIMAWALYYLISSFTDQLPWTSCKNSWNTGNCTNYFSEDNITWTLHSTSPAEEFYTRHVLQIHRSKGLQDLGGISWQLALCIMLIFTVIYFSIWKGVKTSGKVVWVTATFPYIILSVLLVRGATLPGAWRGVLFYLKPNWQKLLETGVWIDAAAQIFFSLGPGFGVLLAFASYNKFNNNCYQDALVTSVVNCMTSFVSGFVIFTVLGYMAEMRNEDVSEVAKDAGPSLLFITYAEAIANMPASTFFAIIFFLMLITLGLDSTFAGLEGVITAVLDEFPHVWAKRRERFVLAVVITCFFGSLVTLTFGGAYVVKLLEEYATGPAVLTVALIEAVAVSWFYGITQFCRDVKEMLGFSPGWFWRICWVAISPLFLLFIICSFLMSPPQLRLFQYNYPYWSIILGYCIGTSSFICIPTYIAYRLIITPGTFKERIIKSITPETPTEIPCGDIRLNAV
dopaminergic receptors D3, sequence (P35462 whole entry): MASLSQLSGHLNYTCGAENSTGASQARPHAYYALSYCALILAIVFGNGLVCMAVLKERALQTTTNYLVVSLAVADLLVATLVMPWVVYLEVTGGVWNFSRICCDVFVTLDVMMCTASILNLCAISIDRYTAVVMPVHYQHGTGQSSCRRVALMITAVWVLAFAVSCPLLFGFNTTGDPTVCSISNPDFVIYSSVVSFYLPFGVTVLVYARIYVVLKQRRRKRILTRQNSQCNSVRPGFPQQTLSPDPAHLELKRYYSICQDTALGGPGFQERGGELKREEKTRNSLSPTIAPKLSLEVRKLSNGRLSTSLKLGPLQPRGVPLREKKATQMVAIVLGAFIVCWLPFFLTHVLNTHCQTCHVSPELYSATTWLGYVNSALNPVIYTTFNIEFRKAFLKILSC
dopaminergic receptors D2, sequence (P14416 whole entry): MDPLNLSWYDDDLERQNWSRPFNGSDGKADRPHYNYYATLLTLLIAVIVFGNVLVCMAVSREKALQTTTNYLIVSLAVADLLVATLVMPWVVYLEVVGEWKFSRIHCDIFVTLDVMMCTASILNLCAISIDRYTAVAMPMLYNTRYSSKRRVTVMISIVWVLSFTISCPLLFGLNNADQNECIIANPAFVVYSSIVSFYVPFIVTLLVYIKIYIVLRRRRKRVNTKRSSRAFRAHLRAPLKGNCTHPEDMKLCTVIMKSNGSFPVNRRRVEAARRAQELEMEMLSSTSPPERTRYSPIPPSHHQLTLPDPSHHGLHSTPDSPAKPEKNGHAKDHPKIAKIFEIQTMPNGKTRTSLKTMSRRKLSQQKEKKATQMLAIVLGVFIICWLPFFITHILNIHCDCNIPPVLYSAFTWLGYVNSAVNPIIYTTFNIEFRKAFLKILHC

Consider `O=S(=O)(NC1CCN(CCCc2noc3cc(F)ccc23)C1)c1csc2ccccc12` (centres unmarked) [Compound 26, N-[1-[3-(6-Fluoro-1,2-benzoxazol-3-yl)propyl]pyrrolidin-3-yl]-benzothiophene-3-sulphonamide], for which the inhibition at 1 µM in [1] was 11%; in [2], 44%; in experiment [3], 51%; in [5], 66%; in experiment [6], 98%; in [7], 79%. Besides, the inhibition at 1 µM in experiment [9] amounted to 81%. In addition, the “α1 [%]” value in experiment [4] came out at 87%. Further, the “σ [%]” value in experiment [8] was determined as 80%.

With `O=S(=O)(NC1CCN(CCCc2c[nH]c3ccc(F)cc23)C1)c1cccc2ccccc12` (centres unmarked) [Compound 79, N-[1-[3-(5-Fluoro-1H-indol-3-yl)propyl]pyrrolidin-3-yl]naphthalene-1-sulphonamide], the inhibition at 1 µM in experiment [1] is -3%; in [2] it was 72%; in experiment [10], 99%; in experiment [5], 105%; in experiment [6], 95%; in [7] it was 99%. The inhibition at 1 µM in experiment [9] was determined as 97%. Further, the “α1 [%]” value in [4] is listed as 37%. For the same molecule, the Ki in experiment [5] came to 0.7 nM. In addition, in [8], the “σ [%]” value was determined as 67%.

Regarding `O=S(=O)(NC1CCN(CCCc2c[nH]c3ccc(F)cc23)C1)c1ccc2ccccc2c1` (centres unmarked) [Compound 80, N-[1-[3-(5-Fluoro-1H-indol-3-yl)propyl]pyrrolidin-3-yl]naphthalene-2-sulphonamide], the inhibition at 1 µM in experiment [1] amounted to 2%; in experiment [3], 86%; in [10], 100%; in experiment [5] it was 104%; in experiment [6], 96%; in [7] it was 98%. The inhibition at 1 µM in [9] is 100%. Besides, in experiment [4], the “α1 [%]” value is reported as 50%. For the same molecule, the inhibition constant (Ki) in experiment [5] is 0.5 nM. Moreover, the “σ [%]” value in experiment [8] was 81%.

Turning to `O=S(=O)(NC1CN(CCOc2cccc3c2OCCO3)C1)c1cccc2ccccc12` [Compound 94, N-[1-[2-(2,3-Dihydro-1,4-benzodioxan-8-yloxy)ethyl]azetidin-3-yl]-naphthalene-1-sulphonamide], the “M3 [%]” value in experiment [1] came out at 1%. In experiment [3], the “5-HT2C [%]” value is recorded as 91%. Also, the “α1 [%]” value in experiment [4] worked out at 87%. The “5-HT2A [%]” value in experiment [10] is 99%. Also, the “SERT [%]” value in experiment [5] was 62%. Besides, the “D2 [%]” value in experiment [6] is recorded as 102%. Moreover, the “5-HT1A [%]” value in [7] is listed as 98%. In addition, in [8], the “σ [%]” value was found to be 71%. Also, in experiment [9], the “D3 [%]” value turned out to be 105%.

Turning to `CC1(C)Cc2cccc(OCCN3CCC(NS(=O)(=O)c4cccc(O)c4)CC3)c2O1` [Compound 109, N-[1-[2-[(2,2-Dimethyl-3H-benzofuran-7-yl)oxy]ethyl]-4-piperidine]-3-hydroxy-benzenesulphonamide], the “M3 [%]” value in [1] is given as 3%. In [2], the “H1 [%]” value stood at 65%. For the same molecule, the “α1 [%]” value in experiment [4] came to 44%. In addition, the “5-HT2A [%]” value in experiment [10] was determined as 95%. The “SERT [%]” value in experiment [5] is −10%. The “D2 [%]” value in [6] came to 92%. For the same molecule, in [7], the “5-HT1A [%]” value worked out at 96%. Also, the “σ [%]” value in experiment [8] stood at 39%. For the same molecule, the “D3 [%]” value in [9] is reported as 86%.

With `O=S(=O)(NC1CCN(CCOc2cccc3ccccc23)C1)c1cccc(O)c1` (centres unmarked) [Compound 115, 3-Hydroksy-N-[1-[2-(1-naphthyloxy)ethyl]pyrrolidin-3-yl]benzenesulphonamide], the “M3 [%]” value in experiment [1] worked out at 13%. Further, in experiment [2], the “H1 [%]” value is 72%. Moreover, the “α1 [%]” value in experiment [4] stood at 24%. Moreover, the “5-HT2A [%]” value in experiment [10] worked out at 99%. For the same molecule, the “SERT [%]” value in [5] was 83%. In addition, the “D2 [%]” value in experiment [6] is on record as 74%. In addition, the “5-HT1A [%]” value in experiment [7] was 100%. Also, in [8], the “σ [%]” value came out at 69%. Also, the “D3 [%]” value in experiment [9] is 97%.

On to `Cc1c(S(=O)(=O)N[C@@H]2CCN(CCCc3noc4cc(F)ccc34)C2)sc2ccc(Cl)cc12` [Compound 204, 5-Chloro-N-[(3R)-1-[3-(6-fluoro-1,2-benzoxazol-3-yl)propyl]pyrrolidin-3-yl]-3-methyl-benzothiophene-2-sulphonamide], for which the inhibition at 1 µM in experiment [1] came out at 17%; in experiment [3] it was 87%; in experiment [5], 70%; in [6], 98%; in [7], 71%; in experiment [9], 96%. In addition, the “α1 [%]” value in experiment [4] is given as 76%. The Ki in experiment [10] was found to be 0.8 nM; in experiment [6], 0.4 nM. Besides, the “σ [%]” value in experiment [8] was found to be 90%.

With `Cc1c(S(=O)(=O)NCC2CCN(CCCc3noc4cc(F)ccc34)C2)sc2ccc(Cl)cc12` (centres unmarked) [Compound 238, 5-Chloro-N-[[1-[3-(6-fluoro-1,2-benzoxazol-3-yl)propyl]pyrrolidin-3-yl]methyl]-3-methyl-benzothiophene-2-sulphonamide], the inhibition at 1 µM in experiment [1] was 26%; in [2], 65%; in [10], 99%; in experiment [5], 64%; in experiment [6], 98%; in experiment [7] it was 71%. The inhibition at 1 µM in [9] is 95%. In addition, the “α1 [%]” value in [4] is given as 82%. Also, the Ki came to 3 nM in experiment [10] and 3.9 nM in experiment [6]. For the same molecule, in [8], the “σ [%]” value worked out at 95%.

Turning to `O=S(=O)(NCC1CCN(CCCc2noc3cc(F)ccc23)C1)c1cccc2ccccc12` (centres unmarked) [Compound 239, N-[[1-[3-(6-Fluoro-1,2-benzoxazol-3-yl)propyl]pyrrolidin-3-yl]methyl]naphthalene-1-sulphonamide], the inhibition at 1 µM came to 23% in experiment [1]; 49% in experiment [3]; 98% in [10]; 36% in experiment [5]; 96% in experiment [6]; 56% in [7]. Besides, the inhibition at 1 µM in [9] stood at 76%. The “α1 [%]” value in [4] is given as 91%. Further, the “σ [%]” value in experiment [8] stood at 97%.

One may read the inhibition as the drop in the measured response relative to a control, in per cent. Broadly, the Ki is the equilibrium dissociation constant of an inhibitor or competing ligand from its target.
